For 21 compounds, IC50 results are on record in patent publication US12540129B2, “KIF18A inhibitors” (AMGEN INC., priority 2019, dated 2026).

As usually defined, the IC50 is the midpoint of a concentration-inhibition curve.

The assay deals with T1, Recombinant human KIF18A (1-467 His-tagged) protein (Homo sapiens, UniProt Q8NI77).
T1 construct: Recombinant human KIF18A (1-467 His-tagged) protein; His; made in house
T1 sequence (Q8NI77 1-467): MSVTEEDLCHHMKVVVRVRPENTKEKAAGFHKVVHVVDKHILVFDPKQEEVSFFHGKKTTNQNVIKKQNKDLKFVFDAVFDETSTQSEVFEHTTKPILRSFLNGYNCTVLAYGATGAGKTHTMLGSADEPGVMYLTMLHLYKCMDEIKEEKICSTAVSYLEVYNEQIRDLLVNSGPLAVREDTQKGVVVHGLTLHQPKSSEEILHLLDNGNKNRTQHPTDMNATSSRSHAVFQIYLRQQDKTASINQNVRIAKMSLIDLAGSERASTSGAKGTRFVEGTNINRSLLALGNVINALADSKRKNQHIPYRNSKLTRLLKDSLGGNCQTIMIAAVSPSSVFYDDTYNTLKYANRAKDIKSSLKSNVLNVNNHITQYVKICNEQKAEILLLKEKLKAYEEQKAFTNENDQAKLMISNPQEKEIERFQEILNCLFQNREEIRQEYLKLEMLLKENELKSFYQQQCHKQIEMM
T1 sequence (P02550 whole entry partner): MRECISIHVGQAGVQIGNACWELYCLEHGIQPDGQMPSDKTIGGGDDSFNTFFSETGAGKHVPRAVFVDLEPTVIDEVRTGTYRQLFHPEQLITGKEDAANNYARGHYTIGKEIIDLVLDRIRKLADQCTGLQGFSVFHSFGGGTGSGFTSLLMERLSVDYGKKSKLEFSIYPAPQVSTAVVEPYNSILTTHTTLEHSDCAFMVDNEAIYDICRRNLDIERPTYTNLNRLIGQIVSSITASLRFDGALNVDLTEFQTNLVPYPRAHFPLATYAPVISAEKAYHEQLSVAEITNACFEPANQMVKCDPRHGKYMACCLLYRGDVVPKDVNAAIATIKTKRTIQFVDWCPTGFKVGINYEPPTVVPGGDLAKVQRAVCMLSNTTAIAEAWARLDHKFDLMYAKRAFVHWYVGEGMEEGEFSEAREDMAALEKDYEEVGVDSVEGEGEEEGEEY
T1 sequence (P02554 whole entry partner): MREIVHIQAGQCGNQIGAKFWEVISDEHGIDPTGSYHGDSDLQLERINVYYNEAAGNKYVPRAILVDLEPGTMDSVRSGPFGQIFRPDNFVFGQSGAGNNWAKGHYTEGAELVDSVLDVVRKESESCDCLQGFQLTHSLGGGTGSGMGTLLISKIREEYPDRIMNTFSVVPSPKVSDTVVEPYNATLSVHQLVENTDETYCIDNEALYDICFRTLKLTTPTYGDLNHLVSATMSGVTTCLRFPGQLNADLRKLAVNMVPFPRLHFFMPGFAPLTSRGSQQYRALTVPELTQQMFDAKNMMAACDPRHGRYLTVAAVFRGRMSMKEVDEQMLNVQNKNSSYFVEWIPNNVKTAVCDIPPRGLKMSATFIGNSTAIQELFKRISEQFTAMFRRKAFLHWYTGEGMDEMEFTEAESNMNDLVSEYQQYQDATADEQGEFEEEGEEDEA
Nature of the assay: KIF18A Enzyme Assay: microtubule-stimulated ATPase activity (ADP-Glo). It counts as biochemical. The note with it: 30 nM KIF18A, 75 μM ATP. Summed up: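 ADP-Glo luminescence reports ADP produced by His-tagged human KIF18A motor domain (1-467, insect-cell expressed) with microtubules and ATP.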
In the case of `O=C(Nc1cccc(S(=O)(=O)N2CCC(F)(F)C2)c1)c1cccnc1N1CCC2(CC1)CC2` [Example 101-6, N-(3-((3,3-difluoropyrrolidin-1-yl)sulfonyl)phenyl)-2-(6-azaspiro[2.5]octan-6-yl)nicotinamide], the IC50 worked out at 581 nM.

For `O=C(Nc1cccc(S(=O)(=O)N2CC(F)(F)C2)c1)c1cccnc1N1CCC2(CC1)CC2` [Example 101-5, N-(3-((3,3-difluoroazetidin-1-yl)sulfonyl)phenyl)-2-(6-azaspiro[2.5]octan-6-yl)nicotinamide], the IC50 came to 401 nM.

`CCCC1CCN(c2ncccc2C(=O)Nc2cccc(S(=O)(=O)C3CCCC3)c2)CC1` [Example 100-17, N-(3-(cyclopentylsulfonyl)phenyl)-2-(4-propylpiperidin-1-yl)nicotinamide]: the IC50 worked out at 778 nM.

For the compound `Cc1ccc(NC(=O)c2ccc(NC(C)(C)CO)nc2N2CCC3(CC2)CC3)cc1-c1nccs1` [Example 111-4, 6-((1-hydroxy-2-methylpropan-2-yl)amino)-N-(4-methyl-3-(thiazol-2-yl)phenyl)-2-(6-azaspiro[2.5]octan-6-yl)nicotinamide], the IC50 turned out to be 349 nM.

Consider `O=C(Nc1cccc(S(=O)(=O)N2CCC(F)CC2)c1)c1cccnc1N1CCC2(CCC2)CC1` [Example 100-5, N-(3-((4-fluoropiperidin-1-yl)sulfonyl)phenyl)-2-(7-azaspiro[3.5]nonan-7-yl)nicotinamide], for which the IC50 was 160 nM.

For the compound `Cc1cncc(-c2cc(NC(=O)c3ccc(NC(C)(C)CO)nc3N3CCC4(CC3)CC4)ccc2C)c1` [Example 111-13, 6-((1-hydroxy-2-methylpropan-2-yl)amino)-N-(4-methyl-3-(5-methylpyridin-3-yl)phenyl)-2-(6-azaspiro[2.5]octan-6-yl)nicotinamide], the IC50 was determined as 165 nM.

Consider `O=C(Nc1cccc(S(=O)(=O)C2CCCC2)c1)c1cccnc1N1CCC2(CCC2)CC1` [Example 100-18, N-(3-(cyclopentylsulfonyl)phenyl)-2-(7-azaspiro[3.5]nonan-7-yl)nicotinamide], for which the IC50 is 134 nM.

For `CC(C)(CO)Nc1ccc(C(=O)Nc2cccc(S(=O)(=O)C(F)(F)F)c2)c(N2CCC3(CC2)CC3)n1` [Example 105-5, 6-((1-hydroxy-2-methylpropan-2-yl)amino)-2-(6-azaspiro[2.5]octan-6-yl)-N-(3-((trifluoromethyl)sulfonyl)phenyl)nicotinamide], the IC50 came out at 186 nM.

Turning to `O=C(Nc1cccc(S(=O)(=O)C2CCCC2)c1)c1ccc(N2CCOCC2)nc1N1CCC2(CCC2)CC1` [Example 103-27, N-(3-(cyclopentylsulfonyl)phenyl)-6-morpholino-2-(7-azaspiro[3.5]nonan-7-yl)nicotinamide], the IC50 amounted to 688 nM.

With `Cc1ccc(NC(=O)c2ccc(NC(C)(C)CO)nc2N2CCC3(CC2)CC3)cc1-c1ccco1` [Example 111-2, N-(3-(furan-2-yl)-4-methylphenyl)-6-((1-hydroxy-2-methylpropan-2-yl)amino)-2-(6-azaspiro[2.5]octan-6-yl)nicotinamide], the IC50 is 277 nM.

Regarding `CC(C)(C)NS(=O)(=O)c1cc(NC(=O)c2ccc(NC(C)(C)CO)nc2N2CCC3(CC2)CC3)ccc1Cl` [Example 105-19, N-(3-(N-(tert-butyl)sulfamoyl)-4-chlorophenyl)-6-((1-hydroxy-2-methylpropan-2-yl)amino)-2-(6-azaspiro[2.5]octan-6-yl)nicotinamide], the IC50 was 70 nM.

For `CC(C)(C)NS(=O)(=O)c1cccc(NC(=O)c2ccc(NC3(CO)CC3)nc2N2CCC3(CC2)CC3)c1` [Example 105-11, N-(3-(N-(tert-butyl)sulfamoyl)phenyl)-6-((1-(hydroxymethyl)cyclopropyl)amino)-2-(6-azaspiro[2.5]octan-6-yl)nicotinamide], the IC50 amounted to 94 nM.

Consider `O=C(Nc1cccc(S(=O)(=O)NC2CCCCC2)c1)c1cccnc1N1CCC2(CC1)CC2` [Example 101-4, N-(3-(N-cyclohexylsulfamoyl)phenyl)-2-(6-azaspiro[2.5]octan-6-yl)nicotinamide], for which the IC50 came to 918 nM.

`O=C(Nc1ccc(F)c(C(=O)N2CCCC(F)(F)C2)c1)c1ccncc1N1CCC2(CC1)CC2` [Example 115-3, N-(3-(3,3-difluoropiperidine-1-carbonyl)-4-fluorophenyl)-3-(6-azaspiro[2.5]octan-6-yl)isonicotinamide]: the IC50 stood at 1670 nM.

Take `O=C(Nc1cccc(S(=O)(=O)C2CCCC2)c1)c1ccc(NCC2(O)CC2)nc1N1CCC2(CC1)CC2` [Example 103-8, N-(3-(cyclopentylsulfonyl)phenyl)-6-(((1-hydroxycyclopropyl)methyl)amino)-2-(6-azaspiro[2.5]octan-6-yl)nicotinamide]: the IC50 was 42 nM.

Turning to `CC(C)(C)NS(=O)(=O)c1cccc(NC(=O)c2ccc(N[C@@H]3CCOC3)nc2N2CCC3(CC2)CC3)c1` [Example 102-21, (R)-N-(3-(N-(tert-butyl)sulfamoyl)phenyl)-2-(6-azaspiro[2.5]octan-6-yl)-6-((tetrahydrofuran-3-yl)amino)nicotinamide], the IC50 amounted to 134 nM.

Turning to `O=C(Nc1cccc(S(=O)(=O)C2CCCC2)c1)c1ccc(OC2COC2)nc1N1CCC2(CC1)CC2` [Example 104, N-(3-(cyclopentylsulfonyl)phenyl)-6-(oxctan-3-yloxy)-2-(6-azaspiro[2.5]octan-6-yl)nicotinamide], the half-maximal inhibitory concentration (IC50) was 296 nM.

For `O=C(Nc1cccc(S(=O)(=O)NC2CC(F)(F)C2)c1)c1cccnc1N1CCC2(CC1)CC2` [Example 101-9, N-(3-(N-(3,3-difluorocyclobutyl)sulfamoyl)phenyl)-2-(6-azaspiro[2.5]octan-6-yl)nicotinamide], the IC50 is 474 nM.

For the compound `COC1CN(c2ccc(C(=O)Nc3cccc(S(=O)(=O)NC(C)(C)C)c3)c(N3CCC4(CC3)CC4)n2)C1` [Example 102-12, N-(3-(N-(tert-butyl)sulfamoyl)phenyl)-6-(3-methoxyazetidin-1-yl)-2-(6-azaspiro[2.5]octan-6-yl)nicotinamide], the IC50 turned out to be 591 nM.

`O=C(Nc1cccc(S(=O)(=O)C2CCCC2)c1)c1ccc(N2CC(O)C2)nc1N1CCC2(CC1)CC2` [Example 103-21, N-(3-(cyclopentylsulfonyl)phenyl)-6-(3-hydroxyazetidin-1-yl)-2-(6-azaspiro[2.5]octan-6-yl)nicotinamide]: the IC50 worked out at 118 nM.

With `CC(C)(C)NS(=O)(=O)c1cccc(NC(=O)c2ccc(N[C@H]3COC[C@@H]3O)nc2N2CCC3(CC2)CC3)c1` [Example 102-20, N-(3-(N-(tert-butyl)sulfamoyl)phenyl)-6-(((3S,4R)-4-hydroxytetrahydrofuran-3-yl)amino)-2-(6-azaspiro[2.5]octan-6-yl)nicotinamide], the IC50 is 103 nM.
